Source: ChEMBL document CHEMBL5108035, “Acriflavine, an Acridine Derivative for Biomedical Application: Current State of the Art” (J Med Chem, 2022)

How the values were obtained:
[1] = Anticancer activity against patient-derived human Colorectal tumor cells assessed as tumor growth inhibition incubated for 72 hrs by FMCA assay; format: functional, cell-based; conditions: Colorectal cancer cell
Ovarian cancer cell line = experiment: Anticancer activity against patient-derived human Ovarian tumor cells assessed as tumor growth inhibition incubated for 72 hrs by FMCA assay; format: functional, cell-based
[2] = Anticancer activity against patient-derived human CLL tumor cells assessed as tumor growth inhibition incubated for 72 hrs by FMCA assay; format: functional, cell-based; conditions: CLL cell
[3] = Cytotoxicity against patient-derived human mononuclear cells assessed as cell growth inhibition incubated for 72 hrs by FMCA assay; format: toxicity, cell-based, Mononuclear cell line
Mahlavu = experiment: Cytotoxicity against human Mahlavu cells assessed as inhibition of cell viability incubated upto 72 hrs by MTT assay; format: functional, cell-based

SMILES: O=c1[nH]cc(F)c(=O)[nH]1 [FLUOROURACIL]
- IC50 [1]: 755 µM
- IC50 (Ovarian cancer cell line): 563 µM
- IC50 [2]: 658 µM
- IC50 at 72 h [3]: 430 µM

SMILES: CCc1c2c(nc3ccc(OC(=O)N4CCC(N5CCCCC5)CC4)cc13)-c1cc3c(c(=O)n1C2)COC(=O)[C@]3(O)CC [IRINOTECAN]
- IC50 [1]: 89.6 µM
- IC50 (Ovarian cancer cell line): 75.3 µM

SMILES: CNC(=O)c1cc(Oc2ccc(NC(=O)Nc3ccc(Cl)c(C(F)(F)F)c3)cc2)ccn1 [SORAFENIB]
- IC50 (Mahlavu): 13.4 µM
